Test results reported in patent US10654852B2, “Antibiotics and methods of using same” (THE BROAD INSTITUTE, INC., priority 2016, dated 2020).
≈ marks a conversion by molar mass, not a printed value. Where two headings read alike, the source gives them in different places.

Key:
Assay type in all cases: cell-based
[1] = tested on: Escherichia coli ATCC-25922; assay: MIC in the presence of normal human serum (50% NHS); conditions: ATCC25922
Text: As used herein, the term “MIC” refers to minimum inhibitory concentrations. Minimum inhibitory concentrations may be determined by broth microdilution according to the Clinical and Laboratory Standards Institute guidelines (see, e.g., […]-A8. Methods for dilution antimicrobial susceptibility tests for bacteria that grow aerobically: approved standard, 8th Ed.; […] One example for measuring minimum inhibitory concentrations may be found in Reck et al., 2012, J. Med. Chem. 55:6916-6933, the disclosure of which is incorporated by reference. Inoculants may be incubated on blood agar plates for 18 to 24 hours. Incubation may occur at a temperature from about 35° C. to about 37° C. […] In serum supplemented experiments, the testing medium (e.g., DMSO solution) and human serum may be mixed. The ratio of testing medium to human serum may be 1:1 (vol:vol). Plates may be read by spectrophotometry at 620 nm. Unless indicated otherwise, all inhibitory concentrations recited in the specification relate to MICs. The MIC tests were based on broth microdilution method in CLSI-M7. […] Solutions of varying concentrations of DMSO were prepared in wells of a v-bottom 96-well plate (Axygen-WIPP02280). A multi-pipette was used to perform serial dilutions as necessary. From well to well, the drug concentrations were 6.4, 3.2, 1.6, 0.8, 0.4, 0.2, 0.1, 0.05, 0.025, 0.0125, 0.00625 and 0 mg/ml in DMSO. For extremely potent antibiotic, the starting concentrations were adjusted accordingly. This was the drug mother plate. Daughter plates were prepared by placing 98 μl of a testing medium into each well of a u-bottom 96-well plate (Costar 3788). An aliquot of each 2 μl solution from each well of the mother plate was then transferred into the corresponding wells of the daughter plate using a multi-pipette work station (CyBi®-SELMA). Testing media were selected based on CLSI-M7, M11 and […]. Cation adjusted Mueller Hinton Broth (CA-MHB-212322) was the testing medium for majority of bacterial species. Brucella medium (BD-211088) supplemented with 5% LHB, 0.5% hemin and 0.1% vitamin K1 (Sigma-95271) was the testing medium for anaerobic bacteria. One day prior to the day of MIC test, bacterial strains were streaked out from -80° C. glycerol stock onto Trypticase Soy Agar (TSA) plates (Brucella blood agar for anaerobic bacteria) and incubated at 37° C. for 20 hours (in anaerobic condition for anaerobic bacteria, e.g., 80% N2, 10% H2 and 10% CO2). Single colonies of bacteria were picked by using an inoculation loop (Greiner-731175) and suspended into 5 ml sterile saline. The turbidity of the suspension was adjusted to 0.10 (Siemens MicroS can turbidity meter), which implies a concentration of colony forming units (“CFU”) of approximately 1.0×10^8 CFU/ml. The bacterial suspension was diluted 100× in testing media. For MIC experiments with NHS, testing medium and human serum (Equitech Bio Inc. BRH-949908) were mixed in the ratio of 1:1. This was used for inoculation of the daughter plates. An aliquot of 100 μl of the bacterial suspension was inoculated into each well of the daughter plates using a multi-pipette. […] The plates were incubated in ambient atmosphere and at 37° C. in an incubator for 20 hours (for anaerobic bacteria in an anaerobic condition as described above for 48 hours). The MIC values were determined and based on the standards of CLSI methods M7-A7, broth microdilution method. […] Test compounds were compared to control antibiotics Penicillin G (Sigma-13752) and levofloxacin (Sigma-28266). […] Additionally, the MIC's of another gyrase inhibitor (“GSK”) with a structure different from the inventive compounds and the antibacterial levofloxin was measured. MIC are given in μg/mL.

[2] = tested on: Klebsiella pneumonia ATCC-700603; assay: MIC (50% NHS); conditions: Klebsiella pneumoniae, ATCC700603; Klebsiella pneumonia ATCC-700603, 50% NHS
[3] = tested on: Acinetobacter baumannii ATCC 17978; assay: MIC (50% NHS); conditions: ATCC17978; Acinetobacter baumannii ATCC 17978, 50% NHS
[4] = tested on: Enterobacter aerogenes ATCC-13048; assay: MIC (50% NHS); conditions: Klebsiella aerogenes, ATCC13048; Enterobacter aerogenes ATCC-13048, 50% NHS
[5] = tested on: Enterobacter cloacae ATCC-BAA-1143; assay: MIC (50% NHS); conditions: ATCCBAA1143; Enterobacter cloacae ATCC-BAA-1143, 50% NHS
[6] = tested on: Citrobacter werkmanii Brenner ATCC-51114; assay: MIC (50% NHS); conditions: ATCC51114; Citrobacter werkmanii Brenner ATCC-51114, 50% NHS
[7] = Escherichia coli ATC-25922, 50% normal human serum, Table 5, read-out: MIC (50% NHS)
[8] = Escherichia coli ATCC-25922, 50% NHS, Table 6, read-out: MIC

Row | SMILES | MIC [1, 7] [µg/mL] | MIC [1, 8] [µg/mL] | MIC [2] [µg/mL] | MIC [3] [µg/mL] | MIC [4] [µg/mL] | MIC [5] [µg/mL] | MIC [6] [µg/mL]
1 | CN1CC2CN(C(=O)Nc3cc(F)cc(F)c3)CC(C1)C2(O)c1ccc(-c2ccc(CN)cc2C#N)cn1 [Compound 24, (1R,5S,9r)-9-(5-(4-(aminomethyl)-2-cyanophenyl)pyridin-2-yl)-N-(3,5-difluorophenyl)-9-hydroxy-7-methyl-3,7-diazabicyclo[3.3.1]nonane-3-carboxamide] | 0.25 | 1 | 16 (≈ 30.9 µM) | 64 (≈ 123 µM) | 2 (≈ 3.86 µM) | 2 (≈ 3.86 µM) | 4 (≈ 7.71 µM)
2 | CN1CC2CN(C(=O)Nc3cc(F)cc(F)c3)CC(C1)C2(O)c1ccc(-c2ccc(CN)cc2C#N)cc1 [Compound 23, (1R,5S,9r)-9-(4′-(aminomethyl)-2′-cyano-[1,1′-biphenyl]-4-yl)-N-(3,5-difluorophenyl)-9-hydroxy-7-methyl-3,7-diazabicyclo[3.3.1]nonane-3-carboxamide] | 0.5 | 0.5 | 8 (≈ 15.5 µM) | 64 (≈ 124 µM) | 1 (≈ 1.93 µM) | 2 (≈ 3.86 µM) | 4 (≈ 7.73 µM)
3 | CNCc1ccc(-c2ccc(C3(O)C4CN(C)CC3CN(C(=O)Nc3cc(F)cc(F)c3)C4)nc2)c(C#N)c1 [Compound 17, (1R,5S,9r)-9-(5-(2-cyano-4-((methylamino)methyl)phenyl)pyridin-2-yl)-N-(3,5-difluorophenyl)-9-hydroxy-7-methyl-3,7-diazabicyclo[3.3.1]nonane-3-carboxamide] | 0.5 | 0.22 | 7.12 (≈ 13.4 µM) | 28.5 (≈ 53.5 µM) | 0.45 (≈ 0.845 µM) | 3.56 (≈ 6.68 µM) | 3.56 (≈ 6.68 µM)
